Reference: ChEMBL document CHEMBL5257035, “Nucleoside Derived Antibiotics to Fight Microbial Drug Resistance: New Utilities for an Established Class of Drugs?” (J Med Chem, 2016)
≈ marks a conversion by molar mass, not a printed value.

Legend:
[1] = Inhibition of Escherichia coli RNA polymerase
Streptococcus pneumoniae [2] = test: Antibacterial activity against Streptococcus pneumoniae B1 assessed as bacterial growth inhibition; type: functional
[3] = system: Mycolicibacterium smegmatis; test: Antimycobacterial activity against Mycobacterium smegmatis assessed as microbial growth inhibition; type: functional
[4] = Inhibition of Bacterial MraY; design: species or system Bacteria
[5] = system: Mycobacterium tuberculosis; test: Antibacterial activity against Mycobacterium tuberculosis ATCC 27294 assessed as reduction in bacterial growth by LORA method; type: functional
[6] = biological target: Hypoxanthine-guanine phosphoribosyltransferase (Homo sapiens, UniProt P00492); test: Binding affinity to human HGPRT assessed as inhibition of constant
[7] = system: Mycobacterium tuberculosis; test: Antimycobacterial activity against Mycobacterium tuberculosis H37Rv assessed as reduction in microbial growth after 7 days by alamar blue assay; type: functional, organism-based; settings: 168 h
[8] = system: Mycobacterium tuberculosis; test: Antimycobacterial activity against Mycobacterium tuberculosis assessed as reduction in microbial growth; type: functional
[9] = Inhibition of GMP synthase (unknown origin); design: species or system Homo sapiens
Klebsiella pneumoniae [10] = test: Antibacterial activity against Klebsiella pneumoniae assessed as bacterial growth inhibition; type: functional
Streptococcus pneumoniae [11] = test: Antibacterial activity against Streptococcus pneumoniae B1 assessed as bacterial growth inhibition incubated for 24 hrs by micro-broth dilution method; type: functional
Streptococcus pyogenes = test: Antibacterial activity against Streptococcus pyogenes assessed as bacterial growth inhibition incubated for 24 hrs by micro-broth dilution method; type: functional
Enterococcus faecalis = test: Antibacterial activity against Enterococcus faecalis assessed as bacterial growth inhibition incubated for 24 hrs by micro-broth dilution method; type: functional
Klebsiella pneumoniae [12] = test: Antibacterial activity against Klebsiella pneumoniae assessed as bacterial growth inhibition incubated for 24 hrs by micro-broth dilution method; type: functional
Enterococcus faecium = test: Antibacterial activity against Enterococcus faecium assessed as bacterial growth inhibition incubated for 24 hrs by micro-broth dilution method; type: functional
Bacillus subtilis [13] = test: Antibacterial activity against Bacillus subtilis assessed as bacterial growth inhibition incubated for 24 hrs by micro-broth dilution method; type: functional
[14] = system: Staphylococcus saprophyticus; test: Antibacterial activity against Staphylococcus saprophyticus ATCC 15305 assessed as bacterial growth inhibition after 20 hrs by CLSI based-broth microdilution method; type: functional
[15] = system: Staphylococcus epidermidis; test: Antibacterial activity against Staphylococcus epidermidis ATCC 12228 assessed as microbial growth inhibition incubated for 24 hrs; type: functional
Haemophilus influenzae = test: Antibacterial activity against Haemophilus influenzae assessed as bacterial growth inhibition incubated for 24 hrs by micro-broth dilution method; type: functional
Staphylococcus aureus = test: Antibacterial activity against Staphylococcus aureus ATCC 25923 assessed as bacterial growth inhibition measured after 18 hrs by CLSI protocol based two-fold serial microdilution method; type: functional
Moraxella catarrhalis = test: Antibacterial activity against Moraxella catarrhalis assessed as bacterial growth inhibition incubated for 24 hrs by micro-broth dilution method; type: functional
Glutamine--tRNA ligase = Glutamine--tRNA ligase (Escherichia coli (strain K12), UniProt P00962); test: Binding affinity to Escherichia coli K12 glutaminyl-tRNA synthetase assessed as inhibition constant
[16] = Binding affinity to Escherichia coli methionyl adenylate synthetase
Bacillus cereus = test: Antibacterial activity against Bacillus cereus ATCC 11778 assessed as bacterial growth inhibition; type: functional
Escherichia coli = test: Antibacterial activity against Escherichia coli K12 assessed as bacterial growth inhibition measured after 24 hrs by micro broth dilution method; type: functional
[17] = Inhibition of Escherichia coli topoisomerase 4
Bacillus subtilis [18] = test: Antibacterial activity against Bacillus subtilis ATCC 6633 assessed as reduction in bacterial cell growth; type: functional
[19] = Toxicity in rat; settings: in vivo
Bacillus subtilis [20] = test: Antibacterial activity against Bacillus subtilis ATCC 6633 assessed as bacterial growth inhibition by agar diffusion method; type: functional
Pseudomonas aeruginosa [21] = test: Antibacterial activity against Pseudomonas aeruginosa ATCC 15442 assessed as bacterial growth inhibition measured after 48 hrs by micro-broth dilution method; type: functional
Methionine--tRNA ligase = Methionine--tRNA ligase (Escherichia coli K-12, UniProt P00959); test: Inhibition of Escherichia coli K12 methionyl tRNA synthetase
Pseudomonas aeruginosa [22] = test: Antibacterial activity against beta-lactam resistant Pseudomonas aeruginosa assessed as bacterial growth inhibition; type: functional
Pseudomonas aeruginosa [23] = test: Antibacterial activity against Pseudomonas aeruginosa assessed as bacterial growth inhibition; type: functional
[24] = system: Mycobacterium tuberculosis; test: Antimycobacterial activity against Mycobacterium tuberculosis H37Rv assessed as inhibition of bacterial growth; type: functional
[25] = system: Mycolicibacterium smegmatis; test: Antimycobacterial activity against Mycobacterium smegmatis SG 125A assessed as inhibition of bacterial growth; type: functional
Mycobacterium avium = test: Antimycobacterial activity against Mycobacterium avium ATCC 25291 assessed as reduction in microbial growth; type: functional
Pseudomonas aeruginosa [26] = test: Antibacterial activity against Pseudomonas aeruginosa assessed as inhibition of bacterial growth incubated for 24 hrs by broth microdilution method; type: functional

Methionine--tRNA ligase, sequence (P00959 whole entry): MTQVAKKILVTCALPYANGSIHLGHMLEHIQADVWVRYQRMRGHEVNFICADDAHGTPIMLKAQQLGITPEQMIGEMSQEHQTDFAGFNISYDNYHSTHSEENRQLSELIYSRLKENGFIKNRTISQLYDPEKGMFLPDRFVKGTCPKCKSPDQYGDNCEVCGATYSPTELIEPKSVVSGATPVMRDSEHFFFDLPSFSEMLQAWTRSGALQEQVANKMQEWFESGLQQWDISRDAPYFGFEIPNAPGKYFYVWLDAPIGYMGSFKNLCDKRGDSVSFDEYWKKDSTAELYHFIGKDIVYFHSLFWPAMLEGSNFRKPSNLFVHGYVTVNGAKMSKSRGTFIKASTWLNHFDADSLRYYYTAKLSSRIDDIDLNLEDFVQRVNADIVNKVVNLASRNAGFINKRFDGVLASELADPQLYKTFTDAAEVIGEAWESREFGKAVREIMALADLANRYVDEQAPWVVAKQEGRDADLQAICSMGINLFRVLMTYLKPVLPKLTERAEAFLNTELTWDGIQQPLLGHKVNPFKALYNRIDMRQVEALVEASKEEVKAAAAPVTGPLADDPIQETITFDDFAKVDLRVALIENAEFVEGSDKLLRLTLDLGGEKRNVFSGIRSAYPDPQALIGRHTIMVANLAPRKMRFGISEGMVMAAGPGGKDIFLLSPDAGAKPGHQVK
Hypoxanthine-guanine phosphoribosyltransferase, sequence (P00492 whole entry): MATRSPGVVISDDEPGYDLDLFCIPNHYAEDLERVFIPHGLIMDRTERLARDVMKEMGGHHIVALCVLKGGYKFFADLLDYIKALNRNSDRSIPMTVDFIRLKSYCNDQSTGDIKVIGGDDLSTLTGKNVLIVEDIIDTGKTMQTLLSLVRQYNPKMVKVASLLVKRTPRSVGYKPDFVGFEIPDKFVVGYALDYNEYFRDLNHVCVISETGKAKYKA
Glutamine--tRNA ligase, sequence (P00962 whole entry): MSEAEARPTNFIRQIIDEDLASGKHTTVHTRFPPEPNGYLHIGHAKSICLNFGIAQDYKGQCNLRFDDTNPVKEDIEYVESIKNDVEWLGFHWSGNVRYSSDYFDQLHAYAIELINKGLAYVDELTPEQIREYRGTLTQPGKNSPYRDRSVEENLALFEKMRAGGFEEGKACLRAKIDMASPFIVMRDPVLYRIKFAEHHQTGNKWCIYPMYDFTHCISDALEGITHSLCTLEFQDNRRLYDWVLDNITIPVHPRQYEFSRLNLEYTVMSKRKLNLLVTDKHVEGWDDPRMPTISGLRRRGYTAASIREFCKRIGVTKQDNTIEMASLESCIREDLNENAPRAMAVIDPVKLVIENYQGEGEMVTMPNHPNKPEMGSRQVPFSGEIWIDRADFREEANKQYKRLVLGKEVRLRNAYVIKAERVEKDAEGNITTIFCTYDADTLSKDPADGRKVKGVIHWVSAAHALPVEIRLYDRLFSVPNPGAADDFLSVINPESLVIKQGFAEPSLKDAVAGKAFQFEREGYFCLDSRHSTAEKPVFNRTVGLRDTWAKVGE

Q: With `CO[C@H]1[C@@H](O)[C@H](n2ccc(=O)[nH]c2=O)O[C@@H]1[C@@H](O[C@@H]1OC(C(=O)N[C@H]2CCCCNC2=O)=C[C@@H](O)[C@H]1O)C(N)=O` as the compound, how does the IC50 [1] read?
A: 100 nM

Q: What about the MIC (Streptococcus pneumoniae [2]) of the same compound?
A: 12.5 µg/mL (≈ 21.9 µM)

Q: What about the MIC [3] of the same compound?
A: 3 µg/mL (≈ 5.27 µM)

Q: What about the Ki [4] of the same compound?
A: 0.01 µg/mL (≈ 0.0176 µM)

Q: And the MIC [5]?
A: 100 µg/mL (≈ 176 µM)

Q: With `CCOC(=O)[C@H](Cc1ccccc1)NP(=O)(N[C@@H](Cc1ccccc1)C(=O)OCC)OCOCCN` as the compound, how does the Ki [6] read?
A: 690 nM

Q: What about the IC50 [7] of the same compound?
A: 5000 nM

Q: And the MIC [8]?
A: 4.5 µM

Q: Which Ki [9] does the source give for `NC(=O)c1ncn([C@@H]2O[C@H](CO)[C@@H](O)[C@H]2O)c1O` [MIZORIBINE] here?
A: 100000 nM

Q: Which MIC (Klebsiella pneumoniae [10]) does the source give for `Cc1cn([C@H]2C[C@H](N=[N+]=[N-])[C@@H](COC(=O)C(=O)N[C@@H](CC(C)C)C(=O)O)O2)c(=O)[nH]c1=O` here?
A: 0.125 µg/mL (≈ 0.276 µM)

Q: Which results are given for `CCC(C)C(N)C(=O)NS(=O)(=O)OC[C@H]1O[C@@H](CCn2nnc(-c3ccc(Oc4ccccc4)cc3)n2)[C@H](O)[C@@H]1O` (stereo partly drawn)?
A: MIC (Streptococcus pneumoniae [11]): 2 µg/mL (≈ 3.39 µM); MIC (Streptococcus pyogenes): 2 µg/mL (≈ 3.39 µM); MIC (Enterococcus faecalis): 2 µg/mL (≈ 3.39 µM); MIC (Klebsiella pneumoniae [12]): 2 µg/mL (≈ 3.39 µM); MIC (Enterococcus faecium): 2 µg/mL (≈ 3.39 µM); MIC (Bacillus subtilis [13]): 2 µg/mL (≈ 3.39 µM); MIC [14]: 2 µg/mL (≈ 3.39 µM); MIC [15]: 2 µg/mL (≈ 3.39 µM); MIC (Haemophilus influenzae): 2 µg/mL (≈ 3.39 µM); MIC (Staphylococcus aureus): 2 µg/mL (≈ 3.39 µM); MIC (Moraxella catarrhalis): 2 µg/mL (≈ 3.39 µM)

Q: For `NC(=O)CCC(N)COP(=O)(O)OC[C@H]1O[C@@H](n2cnc3c(N)ncnc32)[C@H](O)[C@@H]1O` (stereo partly drawn), which Ki (Glutamine--tRNA ligase) is on record?
A: 280 nM

Q: Which Ki [16] does the source give for `CSCC[C@H](N)C(=O)OC[C@H]1O[C@@H](n2cnc3c(N)ncnc32)[C@H](O)[C@@H]1O` here?
A: 10900 nM

Q: And the MIC (Bacillus cereus)?
A: 32 µg/mL (≈ 80.3 µM)

Q: And the MIC (Escherichia coli)?
A: 0.5 µg/mL (≈ 1.25 µM)

Q: For `CCC(C)C(N)C(=O)NS(=O)(=O)OC[C@H]1O[C@@H](CCn2nnc(-c3ccccc3)n2)[C@H](O)[C@@H]1O` (stereo partly drawn), which Ki [17] is on record?
A: 1.3 µg/mL (≈ 2.61 µM)

Q: For `CCC(C)CCCCCCCCCCC(=O)N[C@H]1[C@H](O[C@@H]2O[C@@H](CO)[C@H](O)[C@H](O)[C@H]2NC(C)=O)O[C@H](C[C@@H](C)[C@H]2O[C@@H](n3ccc(=O)[nH]c3=O)[C@H](O)[C@@H]2O)[C@H](O)[C@@H]1O` (stereo partly drawn), which MIC (Bacillus subtilis [18]) is on record?
A: 0.1 µg/mL (≈ 0.12 µM)

Q: And the LD50 [19]?
A: 0.137 mg/kg

Q: And the MIC (Bacillus subtilis [20])?
A: 0.1 µg/mL (≈ 0.12 µM)

Q: Which MIC (Pseudomonas aeruginosa [21]) does the source give for `C[C@H](N)C(=O)N(C)C[C@H](NC(=O)[C@H](C)NC(=O)N[C@@H](Cc1c[nH]c2ccccc12)C(=O)O)C(=O)NCC1C[C@@H](O)[C@H](n2ccc(=O)[nH]c2=O)O1` (stereo partly drawn) here?
A: 64 µg/mL (≈ 91.5 µM)

Q: For `CCC(C)C(N)C(=O)NS(=O)(=O)OC[C@H]1O[C@@H](n2cnc3c(N)nc(I)nc32)[C@H](O)[C@@H]1O` (stereo partly drawn), which IC50 (Methionine--tRNA ligase) is on record?
A: 14 nM

Q: With `CSCC[C@H](NC(=O)NC(Cc1cccc(O)c1)C(=O)O)C(=O)NC(CN(C)C(=O)[C@@H](N)C(Cc1cccc(O)c1)NCC(=O)O)C(=O)N/C=C1/C[C@@H](O)[C@H](n2ccc(=O)[nH]c2=O)O1` (stereo partly drawn) as the compound, how does the MIC (Pseudomonas aeruginosa [22]) read?
A: 0.1 µg/mL (≈ 0.109 µM)

Q: What about the MIC (Pseudomonas aeruginosa [23]) of the same compound?
A: 1.5 µg/mL (≈ 1.64 µM)

Q: With `CCC(C)CCCCCCCC/C=C/C(=O)N[C@H]1[C@H](O[C@@H]2O[C@@H](CO)[C@H](O)[C@H](O)[C@H]2NC(C)=O)O[C@H](C[C@@H](C)[C@H]2O[C@@H](N3CCC(=O)NC3=O)[C@H](O)[C@@H]2O)[C@H](O)[C@@H]1O` (stereo partly drawn) as the compound, how does the MIC [24] read?
A: 10 µg/mL (≈ 12 µM)

Q: What about the MIC [25] of the same compound?
A: 3.1 µg/mL (≈ 3.73 µM)

Q: What about the MIC (Bacillus subtilis [20]) of the same compound?
A: 0.31 µg/mL (≈ 0.373 µM)

Q: With `CCCCCCCCCC[C@H](CC(=O)O[C@H]1CN(C)[C@@H]([C@@H](O[C@@H]2O[C@H](CN)[C@@H](O)[C@H]2O)[C@H]2O[C@@H](n3ccc(=O)[nH]c3=O)[C@H](O)[C@@H]2O)C(=O)N(C)[C@@H]1C(=O)O)OC(=O)C[C@H](C)CC(=O)O` as the compound, how does the MIC (Mycobacterium avium) read?
A: 1.2 µg/mL

Q: Which MIC (Pseudomonas aeruginosa [26]) does the source give for `C[C@H](NC(=O)N[C@@H](Cc1cccc(Cl)c1)C(=O)O)C(=O)N[C@H](C(=O)N/C=C1/C[C@@H](O)[C@H](n2ccc(=O)[nH]c2=O)O1)[C@H](C)NC(=O)[C@@H](N)Cc1ccc(O)cc1` here?
A: 64 µg/mL (≈ 81.5 µM)
